The data set in a line: Mouse PK analysis (blood/plasma concentration after oral administration). Type of data set: in vivo. The conditions noted are these: mice. In short, it runs like this:
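Mice were dosed by oral gavage at 90 mg/kg with blood sampled at 1, 2 and 6 h; a second study used oral dosing with plasma taken at 6 or 24 h. Plasma levels were measured by LC/MS/MS (acetonitrile precipitation, internal-standard curve, positive ESI MRM), and Cmax, Tmax and AUClast were derived by noncompartmental analysis.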

SMILES strings stand for the structures.

With `C[C@@H](C(=O)N(C)c1ccc2cc(-c3n[nH]c4c3C[C@@H]3C(F)(F)[C@]3(C)C4)[nH]c2c1)N1CCN(CC2CCN(c3ccc(C4CCC(=O)NC4=O)cn3)CC2)CC1` (stereo partly drawn) [Compound 17, (2S)—N-(2-((4aS,5aR)-5,5-difluoro-5a-methyl-1,4,4a,5,5a,6-hexahydrocyclopropa[f]indazol-3-yl)-1H-indol-6-yl)-2-(4-((1-(5-(2,6-dioxopiperidin-3-yl)pyridin-2-yl)piperidin-4-yl)methyl)piperazin-1-yl)-N-methylpropanamide], the “detected in plasma through (FIG. 4B)” value (oral, plasma LC/MS/MS) is 24 h.

In the case of `CC1(C)CCc2c(-c3cc4ccc(N5CCC6(CCN(CC7CCN(c8ccc(C9CCC(=O)NC9=O)cn8)CC7)CC6)C5=O)cc4[nH]3)n[nH]c2C1` (stereo not shown) [Compound 22, 3-(6-(4-((2-(2-(6,6-dimethyl-4,5,6,7-tetrahydro-1H-indazol-3-yl)-1H-indol-6-yl)-1-oxo-2,8-diazaspiro[4.5]decan-8-yl)methyl)piperidin-1-yl)pyridin-3-yl)piperidine-2,6-dione], where the note is “mouse, oral, plasma”, the AUC(0-t) was 7.07 µM·h, the peak level (Cmax) was 2430 nM and the Tmax was 1 h.

As to `C[C@@H](C(=O)N(C)c1ccc2cc(-c3n[nH]c4c3CCC(C)(C)C4)[nH]c2c1)N1CCN(C(=O)C2CN(C3CCN(c4ccc5c(c4)C(=O)N(C4CCC(=O)NC4=O)C5=O)CC3)C2)CC1` (stereo partly drawn) [Compound 34, (2S)—N-(2-(6,6-dimethyl-4,5,6,7-tetrahydro-1H-indazol-3-yl)-1H-indol-6-yl)-2-(4-(1-(1-(2-(2,6-dioxopiperidin-3-yl)-1,3-dioxoisoindolin-5-yl)piperidin-4-yl)azetidine-3-carbonyl)piperazin-1-yl)-N-methylpropanamide], the “Cal. Conc. Total (μM) 2 h” value (2 h) was “BQL”. For the setting “6 h”, the “Cal. Conc. Total (μM) 6 h” value is recorded as “BQL”.

Regarding `CN(C(=O)C1CN(C2CCN(c3ccc4c(c3)C(=O)N(C3CCC(=O)NC3=O)C4=O)CC2)C1)c1ccc2cc(-c3n[nH]c4c3CCC(C)(C)C4)[nH]c2c1` (stereo not shown) [Compound 35, N-(2-(6,6-dimethyl-4,5,6,7-tetrahydro-1H-indazol-3-yl)-1H-indol-6-yl)-1-(1-(2-(2,6-dioxopiperidin-3-yl)-1,3-dioxoisoindolin-5-yl)piperidin-4-yl)-N-methylazetidine-3-carboxamide], the concentration at 2 h (mouse, plasma, oral, 90 mg/kg, 2 h, read-out: Cal. Conc. Total (μM) 2 h) came out at 0.155 µM. Besides, the concentration at 6 h (mouse, plasma, oral, 90 mg/kg, 6 h, read-out: Cal. Conc. Total (μM) 6 h) worked out at 0.053 µM.

In the case of `C[C@@]12Cc3[nH]nc(C(=O)Nc4cnn(CC5CN(C(=O)C6CN(c7ccc8c(c7)C(=O)N(C7CCC(=O)NC7=O)C8=O)C6)C5)c4)c3C[C@@H]1C2(F)F` (stereo partly drawn) [Compound 43, (4aS,5aR)-N-(1-((1-(1-(2-(2,6-dioxopiperidin-3-yl)-1,3-dioxoisoindolin-5-yl)azetidine-3-carbonyl)azetidin-3-yl)methyl)-1H-pyrazol-4-yl)-5,5-difluoro-5a-methyl-1,4,4a,5,5a,6-hexahydrocyclopropa[f]indazole-3-carboxamide], for the setting “mouse, oral, plasma”, the exposure AUC(0-t) was determined as 2.34 µM·h, the highest level (Cmax) was 720 nM and the time of peak concentration (Tmax) worked out at 6 h.

For `C[C@@]12Cc3[nH]nc(C(=O)Nc4cnn(CC5CN(C[C@H]6CCN(c7ccc8c(c7)C(=O)N(C7CCC(=O)NC7=O)C8=O)C6)C5)c4)c3C[C@@H]1C2(F)F` (stereo partly drawn) [Compound 44, (4aS,5aR)-N-(1-((1-(((3R)-1-(2-(2,6-dioxopiperidin-3-yl)-1,3-dioxoisoindolin-5-yl)pyrrolidin-3-yl)methyl)azetidin-3-yl)methyl)-1H-pyrazol-4-yl)-5,5-difluoro-5a-methyl-1,4,4a,5,5a,6-hexahydrocyclopropa[f]indazole-3-carboxamide], under “mouse, oral, plasma”, the peak level (Cmax) was 27 nM and the Tmax was 2 h.

Consider `Cn1c(=O)n([C@H]2CCC(=O)NC2=O)c2cccc(N3CCC(CN4CCN(C(=O)c5ccc6cc(-c7n[nH]c8c7CCC(C)(C)C8)[nH]c6c5)CC4)CC3)c21` [Compound 46, (S)-3-(4-(4-((4-(2-(6,6-dimethyl-4,5,6,7-tetrahydro-1H-indazol-3-yl)-1H-indole-6-carbonyl)piperazin-1-yl)methyl)piperidin-1-yl)-3-methyl-2-oxo-2,3-dihydro-1H-benzo[d]imidazol-1-yl)piperidine-2,6-dione], for which, under “mouse, oral, plasma”, the AUC(0-t) worked out at 9.38 µM·h, the Cmax worked out at 2130 nM and the Tmax was determined as 4 h.

For the molecule `Cn1c(=O)n([C@@H]2CCC(=O)NC2=O)c2cccc(N3CCC(CN4CCN(C(=O)c5ccc6cc(-c7n[nH]c8c7CCC(C)(C)C8)[nH]c6c5)CC4)CC3)c21` [Compound 48, (R)-3-(4-(4-((4-(2-(6,6-dimethyl-4,5,6,7-tetrahydro-1H-indazol-3-yl)-1H-indole-6-carbonyl)piperazin-1-yl)methyl)piperidin-1-yl)-3-methyl-2-oxo-2,3-dihydro-1H-benzo[d]imidazol-1-yl)piperidine-2,6-dione], for the setting “mouse, oral, plasma”, the AUC(0-t) is 8.42 µM·h, the Cmax turned out to be 2440 nM and the Tmax turned out to be 6 h.

`C[C@@H](C(=O)N(C)c1ccc2cc(-c3n[nH]c4c3C[C@@H]3C(F)(F)[C@]3(C)C4)[nH]c2c1)N1CCN(CC2CCN(c3cccc4c3n(C)c(=O)n4C3CCC(=O)NC3=O)CC2)CC1` (stereo partly drawn) [Compound 65, (2S)—N-(2-((4aS,5aR)-5,5-difluoro-5a-methyl-1,4,4a,5,5a,6-hexahydrocyclopropa[f]indazol-3-yl)-1H-indol-6-yl)-2-(4-((1-(1-(2,6-dioxopiperidin-3-yl)-3-methyl-2-oxo-2,3-dihydro-1H-benzo[d]imidazol-4-yl)piperidin-4-yl)methyl)piperazin-1-yl)-N-methylpropanamide]: under “mouse, oral, plasma”, the exposure AUC(0-t) amounted to 1.38 µM·h, the Cmax turned out to be 405 nM and the Tmax was determined as 6 h.

For `C[C@@H](C(=O)N(C)c1ccc2cc(-c3n[nH]c4c3C[C@@H]3C(F)(F)[C@]3(C)C4)[nH]c2c1)N1CCN(CC2CCN(c3ccc(C(=O)NC4CCC(=O)NC4=O)nc3)CC2)CC1` (stereo partly drawn) [Compound 66, 5-(4-((4-((S)-1-((2-((4aS,5aR)-5,5-difluoro-5a-methyl-1,4,4a,5,5a,6-hexahydrocyclopropa[f]indazol-3-yl)-1H-indol-6-yl)(methyl)amino)-1-oxopropan-2-yl)piperazin-1-yl)methyl)piperidin-1-yl)-N-(2,6-dioxopiperidin-3-yl)picolinamide], for the setting “mouse, oral, plasma”, the area under the curve AUC(0-t) was found to be 1.74 µM·h, the Cmax was determined as 526 nM and the Tmax was 4 h.

With `CN(C(=O)CCC1CCN(c2ccc(C(=O)NC3CCC(=O)NC3=O)nc2)C1)c1ccc2cc(-c3n[nH]c4c3C[C@@H]3C(F)(F)[C@]3(C)C4)[nH]c2c1` (stereo partly drawn) [Compound 69, 5-(3-(3-((2-((4aS,5aR)-5,5-difluoro-5a-methyl-1,4,4a,5,5a,6-hexahydrocyclopropa[f]indazol-3-yl)-1H-indol-6-yl)(methyl)amino)-3-oxopropyl)pyrrolidin-1-yl)-N-(2,6-dioxopiperidin-3-yl)picolinamide], where the note is “mouse, oral, plasma”, the AUC(0-t) was 1.26 µM·h, the concentration peaked (Cmax) at 283 nM and the Tmax came out at 3.5 h.

`CN(C(=O)CN1CCC2(CC1)CCN(c1ccc3c(c1)C(=O)N(C1CCC(=O)NC1=O)C3=O)C2)c1ccc2cc(-c3n[nH]c4c3C[C@@H]3C(F)(F)[C@]3(C)C4)[nH]c2c1` (stereo partly drawn) [Compound 72, N-(2-((4aS,5aR)-5,5-difluoro-5a-methyl-1,4,4a,5,5a,6-hexahydrocyclopropa[f]indazol-3-yl)-1H-indol-6-yl)-2-(2-(2-(2,6-dioxopiperidin-3-yl)-1,3-dioxoisoindolin-5-yl)-2,8-diazaspiro[4.5]decan-8-yl)-N-methylacetamide]: where the note is “mouse, oral, plasma”, the AUC(0-t) was 0.02 µM·h, the maximum concentration (Cmax) is 9 nM and the Tmax came out at 4 h.

A word on the AUC(0-t): it is the area under the concentration-time curve up to a stated or last time point. Low readings indicate less exposure, high ones more exposure. For orientation: Cmax means the maximum level reached in the sampled fluid or tissue. The Tmax is the time from dosing to the highest level.

For the origin of these results see patent US20240279202A1 (NURIX THERAPEUTICS, INC., priority 2021, published 2024).
